Assay results reported in PubChem BioAssay AID192 (DTP/NCI, 2004).
Values joined by “and” are separate entries in the source; they are usually repeats but may differ in a detail not shown here. Equal values may be shown once. Toxic doses and inconclusive results are not listed.

System: BDF1 mice, B16 melanoma ip, median survival T/C
Test: NCI In Vivo Anticancer Drug Screen. Data for tumor model B16 Melanoma (intraperitoneal) in B6D2F1 (BDF1) mice
Conditions: endpoint: median survival time, higher = longer survival
Experimental: The antitumor activity of compounds was measured in mice bearing transplantable tumors. Survival or tumor size were measured and the results are expressed as the measurement made in the treated group (T) divided by the measurement made in the vehicle treated control group (C). The tumor model used in this assay is B16 Melanoma (intraperitoneal) in B6D2F1 (BDF1) mice

[1] = dose: 50.0 mg/kg/injection, schedule: Q01DX009 (ip), vehicle: Klucel (hydroxypropylcellulose) (HPC)
[2] = dose: 100.0 mg/kg/injection, schedule: Q01DX009 (ip), vehicle: Klucel (hydroxypropylcellulose) (HPC)
[3] = dose: 200.0 mg/kg/injection, schedule: Q01DX009 (ip), vehicle: Klucel (hydroxypropylcellulose) (HPC)
[4] = dose: 12.5 mg/kg/injection, schedule: Q01DX009 (ip), vehicle: saline with Tween-80
[5] = dose: 100.0 mg/kg/injection, schedule: Q01DX009 (ip), vehicle: saline with Tween-80
[6] = dose: 200.0 mg/kg/injection, schedule: Q01DX009 (ip), vehicle: saline with Tween-80
[7] = dose: 400.0 mg/kg/injection, schedule: Q01DX009 (ip), vehicle: saline with Tween-80
[8] = dose: 100.0 mg/kg/injection, schedule: Q01DX009 (ip), vehicle: saline
[9] = dose: 200.0 mg/kg/injection, schedule: Q01DX009 (ip), vehicle: saline
[10] = dose: 400.0 mg/kg/injection, schedule: Q01DX009 (ip), vehicle: saline
[11] = dose: 400.0 mg/kg/injection, schedule: Q01DX009 (ip), vehicle: Klucel (hydroxypropylcellulose) (HPC)
[12] = dose: 0.78 mg/kg/injection, schedule: Q01DX009 (ip), vehicle: saline
[13] = dose: 1.56 mg/kg/injection, schedule: Q01DX009 (ip), vehicle: saline
[14] = dose: 6.25 mg/kg/injection, schedule: Q01DX009 (ip), vehicle: saline
[15] = dose: 12.5 mg/kg/injection, schedule: Q01DX009 (ip), vehicle: saline
[16] = dose: 50.0 mg/kg/injection, schedule: Q01DX009 (ip), vehicle: saline
[17] = dose: 6.0 mg/kg/injection, schedule: Q01DX009 (ip), vehicle: saline with Tween-80
[18] = dose: 12.0 mg/kg/injection, schedule: Q01DX009 (ip), vehicle: saline with Tween-80

## COC1C(OC(=O)c2ccc(C)[nH]2)C(O)C(Oc2ccc3c(O)c(NC(=O)c4ccc(O)c(CC=C(C)C)c4)c(=O)oc3c2Cl)OC1(C)C (centres undefined)
dose: 6.25 mg/kg/injection, schedule: Q01DX009 (ip), vehicle: other
  T/C: 101 % of control
dose: 12.5 mg/kg/injection, schedule: Q01DX009 (ip), vehicle: other
  T/C: 97 % of control and 124 % of control
dose: 25.0 mg/kg/injection, schedule: Q01DX009 (ip), vehicle: other
  T/C: 90 % of control and 91 % of control
dose: 50.0 mg/kg/injection, schedule: Q01DX009 (ip), vehicle: other
  T/C: 94 % of control

## COc1ccc(N=Cc2ccc(C=Nc3ccc(OC)cc3)cc2)cc1
[1]
  T/C: 92 % of control and 94 % of control
[2]
  T/C: 96 % of control
[3]
  T/C: 88 % of control and 93 % of control

## ClC1CC[N-]CC1.ClC1CC[N-]CC1.[Cl][Pt+2]([Cl])([Cl])[Cl]
dose: 3.13 mg/kg/injection, schedule: Q01DX009 (ip), vehicle: saline with Tween-80
  T/C: 104 % of control
dose: 6.25 mg/kg/injection, schedule: Q01DX009 (ip), vehicle: saline with Tween-80
  T/C: 104 % of control
[4]
  T/C: 117 % of control

## CCCCC(SC(CC)(C(N)=O)c1ccccc1)C(=O)O (centres undefined)
dose: 50.0 mg/kg/injection, schedule: Q01DX009 (ip), vehicle: saline with Tween-80
  T/C: 100 % of control
[5]
  T/C: 99 % of control
[6]
  T/C: 92 % of control
[7]
  T/C: 90 % of control

## COc1ccc(CC(C(=O)O)C(Cc2ccc(OC)c(OC)c2)C(=O)O)cc1OC (centres undefined)
[2]
  T/C: 94 % of control
[3]
  T/C: 89 % of control

## CN[C@@H]1[C@H](O)[C@H](NC)[C@H]2O[C@@]3(O)C(=O)C[C@@H](C)O[C@H]3O[C@@H]2[C@H]1O
[8]
  T/C: 108 % of control
[9]
  T/C: 103 % of control
[10]
  T/C: 113 % of control

## [Cl][Ge]([Cl])([c]1ccccc1)[c]1ccccc1
dose: 25.0 mg/kg/injection, schedule: Q01DX009 (ip), vehicle: Klucel (hydroxypropylcellulose) (HPC)
  T/C: 93 % of control
[1]
  T/C: 100 % of control

## O=c1c2cccc3cccc(c32)c2nc3ccccc3n12
dose: 2.5 mg/kg/injection, schedule: Q01DX009 (ip), vehicle: saline with Tween-80
  T/C: 102 % of control
dose: 5.0 mg/kg/injection, schedule: Q01DX009 (ip), vehicle: saline with Tween-80
  T/C: 114 % of control

## O=C(c1ccc(O)cc1O)c1cccc2ccccc12
[2]
  T/C: 98 % of control
[3]
  T/C: 98 % of control
[11]
  T/C: 100 % of control

## NC(CCSCc1ccccc1)C(=O)O (centres undefined)
[5]
  T/C: 105 % of control
[6]
  T/C: 96 % of control
[7]
  T/C: 87 % of control

## CC(C)[C@]12O[C@H]1[C@@H]1O[C@]13[C@]1(O[C@H]1C[C@H]1C4=C(CC[C@@]13C)C(=O)OC4)[C@@H]2O
dose: 8.0 micrograms/kg/injection, schedule: Q01DX009 (ip), vehicle: saline + alcohol
  T/C: 114 % of control
dose: 12.5 micrograms/kg/injection, schedule: Q01DX009 (ip), vehicle: saline with Tween-80
  T/C: 119 % of control
dose: 16.0 micrograms/kg/injection, schedule: Q01DX009 (ip), vehicle: saline + alcohol
  T/C: 109 % of control
dose: 25.0 micrograms/kg/injection, schedule: Q01DX009 (ip), vehicle: saline with Tween-80
  T/C: 112 % of control
dose: 32.0 micrograms/kg/injection, schedule: Q01DX009 (ip), vehicle: saline + alcohol
  T/C: 104 % of control
dose: 50.0 micrograms/kg/injection, schedule: Q01DX009 (ip), vehicle: saline with Tween-80
  T/C: 124 % of control
dose: 64.0 micrograms/kg/injection, schedule: Q01DX009 (ip), vehicle: saline + alcohol
  T/C: 104 % of control
dose: 100.0 micrograms/kg/injection, schedule: Q01DX009 (ip), vehicle: saline with Tween-80
  T/C: 107 % of control
dose: 200.0 micrograms/kg/injection, schedule: Q01DX009 (ip), vehicle: saline with Tween-80
  T/C: 122 % of control
dose: 400.0 micrograms/kg/injection, schedule: Q01DX009 (ip), vehicle: saline with Tween-80
  T/C: 100 % of control

## ClC1CCC[N-]C1.ClC1CCC[N-]C1.[Cl][Pt+2][Cl] (centres undefined)
[12]
  T/C: 100 % of control
[13]
  T/C: 95 % of control
dose: 3.13 mg/kg/injection, schedule: Q01DX009 (ip), vehicle: saline
  T/C: 96 % of control
[14]
  T/C: 100 % of control
[15]
  T/C: 95 % of control

## Cc1cc(Cl)ccc1NC(=O)c1ccccc1Cl
[2]
  T/C: 114 % of control
[3]
  T/C: 122 % of control
[11]
  T/C: 110 % of control

## COC(=O)CCNCc1ccccc1
[2]
  T/C: 100 % of control
[3]
  T/C: 96 % of control
[11]
  T/C: 93 % of control

## O=C1CC2(C(=O)N1CN1CCCCC1)c1ccccc1-c1ccccc12
dose: 12.5 mg/kg/injection, schedule: Q01DX009 (ip), vehicle: Klucel (hydroxypropylcellulose) (HPC)
  T/C: 114 % of control
[1]
  T/C: 112 % of control
[2]
  T/C: 112 % of control
[3]
  T/C: 112 % of control

## Cc1ccc2oc(-c3ccccc3)c(O)c(=O)c2c1
[8]
  T/C: 106 % of control
[9]
  T/C: 108 % of control
[10]
  T/C: 104 % of control

## COc1cccc2c1C(=N)c1c(O)c3c(c(O)c1C2=O)C[C@@](O)(C(C)=O)C[C@@H]3OC1CC(N)C(O)C(C)O1 (some centres undefined)
dose: 1.0 mg/kg/injection, schedule: Q01DX009 (ip), vehicle: water
  T/C: 177 % of control
dose: 1.56 mg/kg/injection, schedule: Q01DX001 (ip), vehicle: water
  T/C: 163 % of control
dose: 2.0 mg/kg/injection, schedule: Q01DX009 (ip), vehicle: water
  T/C: 205 % of control
dose: 3.13 mg/kg/injection, schedule: Q01DX001 (ip), vehicle: water
  T/C: 159 % of control
dose: 4.0 mg/kg/injection, schedule: Q01DX009 (ip), vehicle: water
  T/C: 201 % of control
dose: 6.25 mg/kg/injection, schedule: Q01DX001 (ip), vehicle: water
  T/C: 166 % of control and 168 % of control and 185 % of control
dose: 12.0 mg/kg/injection, schedule: Q01DX001 (ip), vehicle: water
  T/C: 94 % of control
dose: 12.5 mg/kg/injection, schedule: Q01DX001 (ip), vehicle: water
  T/C: 164 % of control and 201 % of control
dose: 20.0 mg/kg/injection, schedule: Q01DX001 (ip), vehicle: water
  T/C: 95 % of control

## Cc1ccc2c(Nc3ccc(NS(C)(=O)=O)cc3)c3ccccc3nc2c1C
dose: 5.0 mg/kg/injection, schedule: Q01DX009 (ip), vehicle: saline sonified
  T/C: 90 % of control
dose: 20.0 mg/kg/injection, schedule: Q01DX009 (ip), vehicle: other
  T/C: 117 % of control
dose: 20.0 mg/kg/injection, schedule: Q01DX009 (ip), vehicle: saline with Tween-80
  T/C: 158 % of control
dose: 40.0 mg/kg/injection, schedule: Q01DX009 (ip), vehicle: saline sonified
  T/C: 185 % of control
dose: 40.0 mg/kg/injection, schedule: Q01DX009 (ip), vehicle: saline with Tween-80
  T/C: 163 % of control
[16]
  T/C: 100 % of control

## CC1=C(/C=C/C(C)=N/NC(N)=S)C(C)(C)CCC1
dose: 0.3 mg/kg/injection, schedule: Q01DX009 (ip), vehicle: saline with Tween-80
  T/C: 105 % of control
[17]
  T/C: 97 % of control
[18]
  T/C: 97 % of control

## CN(C)CCC=C1c2ccccc2C=Cc2ccccc21
dose: 0.39 mg/kg/injection, schedule: Q01DX009 (ip), vehicle: saline
  T/C: 96 % of control
[12]
  T/C: 102 % of control
[13]
  T/C: 98 % of control and 97 % of control
dose: 3.12 mg/kg/injection, schedule: Q01DX009 (ip), vehicle: saline
  T/C: 96 % of control and 100 % of control
[14]
  T/C: 86 % of control and 123 % of control and 93 % of control
[15]
  T/C: 111 % of control
dose: 25.0 mg/kg/injection, schedule: Q01DX009 (ip), vehicle: saline
  T/C: 118 % of control and 90 % of control
[16]
  T/C: 101 % of control

## Cc1cc(=O)[nH]o1
[8]
  T/C: 106 % of control
[9]
  T/C: 105 % of control
[10]
  T/C: 99 % of control

## CC(=O)Nc1c(Cl)c(Cl)c2c(c1Cl)Cc1cc(Br)ccc1-2
dose: 1.5 mg/kg/injection, schedule: Q01DX009 (ip), vehicle: saline with Tween-80
  T/C: 94 % of control
dose: 3.0 mg/kg/injection, schedule: Q01DX009 (ip), vehicle: saline with Tween-80
  T/C: 94 % of control
[17]
  T/C: 100 % of control
[18]
  T/C: 92 % of control
[4]
  T/C: 97 % of control

## CCCCCCCCCCCC[N+]1(CCCCCCCCCCCC)CCCC(C)C1 (centres undefined)
dose: 0.09 mg/kg/injection, schedule: Q01DX009 (ip), vehicle: Klucel (hydroxypropylcellulose) (HPC)
  T/C: 95 % of control
dose: 0.18 mg/kg/injection, schedule: Q01DX009 (ip), vehicle: Klucel (hydroxypropylcellulose) (HPC)
  T/C: 97 % of control
dose: 0.37 mg/kg/injection, schedule: Q01DX009 (ip), vehicle: Klucel (hydroxypropylcellulose) (HPC)
  T/C: 93 % of control and 95 % of control
